These results are taken from patent US9611246B2, “Compositions, apparatus, systems, and methods for resolving electronic excited states” (HALLSTAR INNOVATIONS CORP., priority 2012, dated 2017).

Series [1] can be described thus: UV and visible light absorption spectra of stabilizers. As to conditions: acetonitrile. Format: physicochemical. Here is the method:
UV and visible light absorption spectra were recorded to investigate to what extent each stabilizer itself absorbs UV light. […] Protoporphyrin IX has weak absorption bands above 450 nm, where the two compounds are transparent (FIG. 2). The compound with the oxygen bridge (Formula II(d)(1)) caused a bathocromic shift of the UV absorption of the lowest energy band. The compound with the sulfur bridge (Formula II(e)(1)) shifted the lowest energy band further into the visible region.

In another series the test system is HaCat cells. Kind of series: Dark toxicity analysis in HaCat cells (no irradiation). Format: cell-based, human. As to conditions: 1 mM with ALA, no red light irradiation. Here is the method: To make sure that ALA and conjugated fused polycyclics treatments themselves are not influencing cell viability, (or cause cellular toxicity), dark toxicity analysis was performed. The experiment procedures were exactly same as above for cell viability analysis except that the red light irradiation step was omitted.

As for `COC(=O)C(C#N)=C1c2ccccc2-c2ccccc21` [Formula I(a)(1)], the λmax in series [1] is 334 nm. Besides, the “extinction coefficient (molar absorptivity)” value in series [1] (at λmax) is given as 16,200 M −1 cm −1.

Turning to `COC(=O)C(C#N)=C1c2ccccc2C(=O)c2ccccc21` [Formula II(a)(1)], the dark toxicity result in the series with HaCat cells is given as “a little toxicity”.
